Laboratory results published in patent publication US11174268B2, “Benzenesulfonamide compouds and their use as therapeutic agents” (Xenon Pharmaceuticals Inc., priority 2016, dated 2021).
Where a name gives a salt, the structure may show the parent alone. Read-outs that look alike come from different tables or passages of the source.

Columns and labels:
[1] = biological target: NaV1.6 (Homo sapiens (Human), UniProt Q9UQD0); experiment: Sodium Influx Assay (Flux), NaV1.6; format: cell-based; conditions: Trex HEK293 cells, ANG2 dye, inactivated state;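 further: Tetracycline-induced cells, compounds applied for one hour at room temperature with modulators holding channels open, IC50 from percent inhibition of sodium influx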
[2] = biological target: NaV1.1 (Homo sapiens (Human), UniProt P35498); experiment: Sodium Influx Assay (Flux), NaV1.1; format: cell-based; conditions: Trex HEK293 cells, ANG2 dye, inactivated state;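 further: channels co-expressed with human β1 subunit and held open by modulators, cells exposed to compounds for one hour at room temperature, IC50 from percent inhibition of influx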
[3] = biological target: NaV1.5 (Homo sapiens (Human), UniProt Q14524); experiment: Sodium Influx Assay (Flux), NaV1.5
[4] = read-out: Flux NaV1.5 IC50, Trex HEK293 cells, ANG2 dye, inactivated state

Chain of NaV1.5 (Q14524 other isoform, or with tags, fused parts or gaps): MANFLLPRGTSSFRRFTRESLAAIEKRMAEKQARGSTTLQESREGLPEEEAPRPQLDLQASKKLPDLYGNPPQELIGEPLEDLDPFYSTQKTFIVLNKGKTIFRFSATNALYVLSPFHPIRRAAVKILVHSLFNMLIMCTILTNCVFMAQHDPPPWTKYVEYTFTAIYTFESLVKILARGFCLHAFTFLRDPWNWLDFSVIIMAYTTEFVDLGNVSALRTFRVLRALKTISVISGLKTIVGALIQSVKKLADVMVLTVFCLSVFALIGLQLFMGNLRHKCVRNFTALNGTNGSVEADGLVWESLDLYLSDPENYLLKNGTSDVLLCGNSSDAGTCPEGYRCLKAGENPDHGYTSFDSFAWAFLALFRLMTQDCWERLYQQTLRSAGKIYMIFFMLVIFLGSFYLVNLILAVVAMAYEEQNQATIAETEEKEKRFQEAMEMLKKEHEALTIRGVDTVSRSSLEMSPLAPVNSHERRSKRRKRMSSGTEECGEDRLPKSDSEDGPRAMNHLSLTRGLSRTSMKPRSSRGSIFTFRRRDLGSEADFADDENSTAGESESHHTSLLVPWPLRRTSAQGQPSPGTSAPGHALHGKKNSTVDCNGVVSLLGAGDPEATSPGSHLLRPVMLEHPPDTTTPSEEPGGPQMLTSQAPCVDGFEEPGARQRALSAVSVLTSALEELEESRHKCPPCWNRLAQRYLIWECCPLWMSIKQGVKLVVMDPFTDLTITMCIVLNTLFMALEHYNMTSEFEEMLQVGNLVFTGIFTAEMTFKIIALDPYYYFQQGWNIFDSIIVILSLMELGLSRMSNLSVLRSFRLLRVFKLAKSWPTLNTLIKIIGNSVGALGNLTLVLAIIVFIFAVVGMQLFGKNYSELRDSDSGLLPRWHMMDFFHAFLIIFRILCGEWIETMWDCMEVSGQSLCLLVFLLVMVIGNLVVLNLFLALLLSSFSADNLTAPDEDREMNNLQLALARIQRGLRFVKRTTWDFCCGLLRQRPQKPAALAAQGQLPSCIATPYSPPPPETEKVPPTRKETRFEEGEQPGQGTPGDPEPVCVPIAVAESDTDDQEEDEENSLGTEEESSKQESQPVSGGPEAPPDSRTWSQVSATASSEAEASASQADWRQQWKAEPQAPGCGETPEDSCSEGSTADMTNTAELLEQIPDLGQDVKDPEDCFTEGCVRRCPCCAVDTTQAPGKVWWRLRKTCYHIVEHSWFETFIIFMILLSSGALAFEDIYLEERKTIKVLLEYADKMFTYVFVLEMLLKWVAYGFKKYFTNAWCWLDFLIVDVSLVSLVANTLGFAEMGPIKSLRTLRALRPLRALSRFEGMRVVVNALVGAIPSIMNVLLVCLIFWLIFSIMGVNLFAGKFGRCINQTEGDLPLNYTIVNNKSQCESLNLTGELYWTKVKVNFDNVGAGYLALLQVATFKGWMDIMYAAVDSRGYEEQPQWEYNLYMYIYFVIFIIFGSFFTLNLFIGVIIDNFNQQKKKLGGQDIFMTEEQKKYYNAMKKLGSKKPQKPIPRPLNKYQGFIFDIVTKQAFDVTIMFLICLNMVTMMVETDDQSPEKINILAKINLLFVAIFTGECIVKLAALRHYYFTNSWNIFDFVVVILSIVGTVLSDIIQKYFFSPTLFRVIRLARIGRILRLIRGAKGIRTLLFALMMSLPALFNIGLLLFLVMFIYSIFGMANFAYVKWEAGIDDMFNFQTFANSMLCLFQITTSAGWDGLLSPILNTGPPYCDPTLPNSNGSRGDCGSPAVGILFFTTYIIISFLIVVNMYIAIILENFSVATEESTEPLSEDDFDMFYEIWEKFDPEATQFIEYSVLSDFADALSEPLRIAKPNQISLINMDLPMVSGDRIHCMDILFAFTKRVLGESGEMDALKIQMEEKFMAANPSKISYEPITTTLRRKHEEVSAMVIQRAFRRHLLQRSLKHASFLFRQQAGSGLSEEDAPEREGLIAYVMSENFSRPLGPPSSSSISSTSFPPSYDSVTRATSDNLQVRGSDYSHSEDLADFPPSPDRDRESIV

| SMILES | IC50 [1] [µM] | IC50 [2] [µM] | IC50 [3, 4] [µM] | IC50 [3] [µM] |
| --- | --- | --- | --- | --- |
| C[C@H](Oc1cc(F)c(S(=O)(=O)Nc2cscn2)cc1Cl)c1cc(Cl)ccc1F [Example 124, (S)-5-chloro-4-(1-(5-chloro-2-fluorophenyl)ethoxy)-2-fluoro-N-(thiazol-4-yl)benzenesulfonamide] | 1.84 | 15.9 | 1.87 |  |
| CC[C@H](Nc1cc(F)c(S(=O)(=O)Nc2nccs2)cc1C)c1ccccc1 [Example 126, (S)-2-fluoro-5-methyl-4-((1-phenylpropyl)amino)-N-(thiazol-2-yl)benzenesulfonamide] | 0.114 | 0.147 |  | 11.4 |
| O=S(=O)(Nc1cscn1)c1cc(Cl)c(NCc2c(F)cccc2CN2CC3(CCC3)C2)cc1F [Example 128, 4-((2-((2-azaspiro[3.3]heptan-2-yl)methyl)-6-fluorobenzyl)amino)-5-chloro-2-fluoro-N-(thiazol-4-yl)benzenesulfonamide] | 0.208 | 5.37 |  | 6.72 |
| O=S(=O)(Nc1ncccn1)c1c(F)cc(NCc2c(F)cccc2CN2CCC2)cc1F [Example 145, 4-((2-(azetidin-1-ylmethyl)-6-fluorobenzyl)amino)-2,6-difluoro-N-(pyrimidin-2-yl)benzenesulfonamide 2,2,2-trifluoroacetate] | 0.467 | 30 | 30 |  |
| C[C@H](Nc1cc(F)c(S(=O)(=O)Nc2cscn2)cc1Cl)c1cc(C2CC2)ccc1F [Example 146, (S)-5-chloro-4-((1-(5-cyclopropyl-2-fluorophenyl)ethyl)amino)-2-fluoro-N-(thiazol-4-yl)benzenesulfonamide] | 4.12 | 5.57 | 9.84 |  |
| O=S(=O)(Nc1cscn1)c1c(F)cc(NCc2c(F)cccc2CN2CCC3(CCO3)C2)cc1F (stereo not drawn) [Example 155, 4-((2-((1-oxa-6-azaspiro[3.4]octan-6-yl)methyl)-6-fluorobenzyl)amino)-2,6-difluoro-N-(thiazol-4-yl)benzenesulfonamide formate] | 0.25 | 30 | 30 |  |
| O=S(=O)(Nc1cscn1)c1c(F)cc(NCc2c(F)cccc2CN2CCC23COC3)cc1F [Example 157, 4-((2-((6-oxa-1-azaspiro[3.3]heptan-1-yl)methyl)-6-fluorobenzyl)amino)-2,6-difluoro-N-(thiazol-4-yl)benzenesulfonamide formate] | 2.36 | 30 | 30 |  |
| O=S(=O)(Nc1cscn1)c1c(F)cc(NCc2c(F)cccc2CN2CCC3(CCC3)C2)cc1F [Example 159, 4-((2-((6-azaspiro[3.4]octan-6-yl)methyl)-6-fluorobenzyl)amino)-2,6-difluoro-N-(thiazol-4-yl)benzenesulfonamide formate] | 0.153 | 9.21 |  | 11.8 |
| O=S(=O)(Nc1cscn1)c1c(F)cc(NCc2c(F)cccc2CN2CC3(C2)CC(F)(F)C3)cc1F [Example 160, 4-((2-((6,6-difluoro-2-azaspiro[3.3]heptan-2-yl)methyl)-6-fluorobenzyl)amino)-2,6-difluoro-N-(thiazol-4-yl)benzenesulfonamide formate] | 0.064 | 6.51 |  | 23 |
| O=S(=O)(Nc1cscn1)c1c(F)cc(NCc2c(F)cccc2CN2CC3(C2)CC3(F)F)cc1F [Example 163, 4-((2-((1,1-difluoro-5-azaspiro[2.3]hexan-5-yl)methyl)-6-fluorobenzyl)amino)-2,6-difluoro-N-(thiazol-4-yl)benzenesulfonamide] | 0.288 | 6.35 | 30 |  |
| CC1CN(Cc2cccc(F)c2CNc2cc(F)c(S(=O)(=O)Nc3cscn3)c(F)c2)C1 [Example 164, 2,6-difluoro-4-((2-fluoro-6-((3-methylazetidin-1-yl)methyl)benzyl)amino)-N-(thiazol-4-yl)benzenesulfonamide formate] | 0.084 | 22.8 | 20.3 |  |
| CC1(C)CN(Cc2cccc(F)c2CNc2cc(F)c(S(=O)(=O)Nc3cscn3)c(F)c2)C1 [Example 170, 4-((2-((3,3-dimethylazetidin-1-yl)methyl)-6-fluorobenzyl)amino)-2,6-difluoro-N-(thiazol-4-yl)benzenesulfonamide] | 0.176 | 24.7 |  | 15.2 |
| O=S(=O)(Nc1cscn1)c1c(F)cc(NCc2c(F)cccc2CN2CCC23CCC3)cc1F [Example 173, 4-((2-((1-azaspiro[3.3]heptan-1-yl)methyl)-6-fluorobenzyl)amino)-2,6-difluoro-N-(thiazol-4-yl)benzenesulfonamide formate] | 0.05 | 7.22 | 19.5 |  |

Continued, in another order:

| IC50 [1] [µM] | IC50 [2] [µM] | SMILES | IC50 [3, 4] [µM] | IC50 [3] [µM] |
| --- | --- | --- | --- | --- |
| 1.73 | 3.26 | C[C@H](Sc1cc(F)c(S(=O)(=O)Nc2nccs2)cc1Cl)c1ccccc1 [Example 125, (S)-5-chloro-2-fluoro-4-((1-phenylethyl)thio)-N-(thiazol-2-yl)benzenesulfonamide] | 3.35 |  |
| 5.11 | 7.87 | O=S(=O)(Nc1cscn1)c1cc(Cl)c(NCc2ccc(F)cc2CN2CCC2)cc1F [Example 132, 4-((2-(azetidin-1-ylmethyl)-4-fluorobenzyl)amino)-5-chloro-2-fluoro-N-(thiazol-4-yl)benzenesulfonamide] | 24.7 |  |
| 3.31 | 3.43 | Cc1ccc(F)cc1CNc1cc(F)c(S(=O)(=O)Nc2cscn2)cc1Cl [Example 147, 5-chloro-2-fluoro-4-((5-fluoro-2-methylbenzyl)amino)-N-(thiazol-4-yl)benzenesulfonamide] | 2.72 |  |
| 1.25 | 2.95 | C[C@H](Nc1ccc(S(=O)(=O)Nc2cscn2)c(F)c1Cl)c1c(F)cccc1Cl [Example 148, (S)-3-chloro-4-((1-(2-chloro-6-fluorophenyl)ethyl)amino)-2-fluoro-N-(thiazol-4-yl)benzenesulfonamide] | 4.84 |  |
| 0.78 | 3.36 | C[C@H](Nc1ccc(S(=O)(=O)Nc2cscn2)c(F)c1Cl)c1c(F)cccc1F [Example 149, (S)-3-chloro-4-((1-(2,6-difluorophenyl)ethyl)amino)-2-fluoro-N-(thiazol-4-yl)benzenesulfonamide] | 6.39 |  |
| 2.82 | 30 | O=S(=O)(Nc1cscn1)c1cc(Cl)c(OCc2c(F)ccc(F)c2CN2CCC2)cc1F [Example 150, 4-((2-(azetidin-1-ylmethyl)-3,6-difluorobenzyl)oxy)-5-chloro-2-fluoro-N-(thiazol-4-yl)benzenesulfonamide] | 8.66 |  |
| 2.1 | 20.5 | CN1CCN(Cc2cccc(F)c2CNc2cc(F)c(S(=O)(=O)Nc3cscn3)c(F)c2)CC1 [Example 151, 2,6-difluoro-4-((2-fluoro-6-((4-methylpiperazin-1-yl)methyl)-benzyl)amino)-N-(thiazol-4-yl)benzenesulfonamide formate] | 30 |  |
| 0.16 | 10.3 | CCOC1(C)CN(Cc2cccc(F)c2CNc2cc(F)c(S(=O)(=O)Nc3cscn3)c(F)c2)C1 [Example 152, 4-((2-((3-ethoxy-3-methylazetidin-1-yl)methyl)-6-fluorobenzyl)amino)-2,6-difluoro-N-(thiazol-4-yl)benzenesulfonamide formate] | 19 |  |
| 0.451 | 28.8 | COC[C@H]1CCCN1Cc1cccc(F)c1CNc1cc(F)c(S(=O)(=O)Nc2cscn2)c(F)c1 [Example 154, (R)-2,6-difluoro-4-((2-fluoro-6-((2-(methoxymethyl)pyrrolidin-1-yl)methyl)benzyl)amino)-N-(thiazol-4-yl)benzenesulfonamide formate] | 30 |  |
| 0.461 | 30 | COCCN(C)Cc1cccc(F)c1CNc1cc(F)c(S(=O)(=O)Nc2cscn2)c(F)c1 [Example 162, 2,6-difluoro-4-((2-fluoro-6-(((2-methoxyethyl)(methyl)amino)methyl)benzyl)amino)-N-(thiazol-4-yl)benzenesulfonamide formate] | 11 |  |
| 0.361 | 14.9 | CN(C)Cc1cccc(F)c1CNc1cc(F)c(S(=O)(=O)Nc2cscn2)c(F)c1 [Example 165, 4-((2-((dimethylamino)methyl)-6-fluorobenzyl)amino)-2,6-difluoro-N-(thiazol-4-yl)benzenesulfonamide formate] |  | 20.8 |
| 0.405 | ≥ 30 | CN(Cc1cccc(F)c1CNc1cc(F)c(S(=O)(=O)Nc2cscn2)c(F)c1)CC1(C)COC1 [Example 167, 2,6-difluoro-4-((2-fluoro-6-((methyl((3-methyloxetan-3-yl)methyl)amino)methyl)benzyl)amino)-N-(thiazol-4-yl)benzenesulfonamide formate] |  | ≥ 30 |
| 0.035 | 30 | O=S(=O)(Nc1cscn1)c1c(F)cc(NCc2c(F)cccc2CN2CC3CC3C2)cc1F (stereo not drawn) [Example 174, 4-((2-((3-azabicyclo[3.1.0]hexan-3-yl)methyl)-6-fluorobenzyl)amino)-2,6-difluoro-N-(thiazol-4-yl)benzenesulfonamide] | 30 |  |
| 0.342 | 10.7 | CC(C)CN(C)Cc1cccc(F)c1CNc1cc(F)c(S(=O)(=O)Nc2cscn2)c(F)c1 [Example 175, 2,6-difluoro-4-((2-fluoro-6-((isobutyl(methyl)amino)methyl)benzyl)amino)-N-(thiazol-4-yl)benzenesulfonamide] | 14.5 |  |
| 0.68 | 5.75 | O=S(=O)(Nc1cscn1)c1c(F)cc(NCc2c(F)cccc2CN2CC(O)(C(F)(F)F)C2)cc1F [Example 176, 2,6-difluoro-4-((2-fluoro-6-((3-hydroxy-3-(trifluoromethyl)azetidin-1-yl)methyl)benzyl)amino)-N-(thiazol-4-yl)benzenesulfonamide formate] | 16.9 |  |
